In one series the target is T1, CYP1A2 (Homo sapiens, UniProt P05177).
T1 sequence (P05177 1-516): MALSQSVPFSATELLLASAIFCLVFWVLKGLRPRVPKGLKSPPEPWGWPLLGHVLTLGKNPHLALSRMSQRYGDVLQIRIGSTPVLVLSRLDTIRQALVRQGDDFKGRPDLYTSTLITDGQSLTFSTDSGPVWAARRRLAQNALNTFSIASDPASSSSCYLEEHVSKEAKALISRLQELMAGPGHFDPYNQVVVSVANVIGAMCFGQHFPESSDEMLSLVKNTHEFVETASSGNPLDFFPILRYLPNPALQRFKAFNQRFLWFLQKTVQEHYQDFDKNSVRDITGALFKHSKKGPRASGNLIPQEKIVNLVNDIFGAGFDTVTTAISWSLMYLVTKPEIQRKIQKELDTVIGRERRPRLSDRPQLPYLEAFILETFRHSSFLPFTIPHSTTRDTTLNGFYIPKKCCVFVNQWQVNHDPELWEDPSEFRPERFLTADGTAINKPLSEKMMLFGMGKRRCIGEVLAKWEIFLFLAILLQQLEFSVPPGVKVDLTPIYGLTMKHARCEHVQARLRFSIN
In words: Cytochrome P450 inhibition assay, CYP1A2. To be noted: pooled human liver microsomes, probe Phenacetin. In kind it is in vitro ADME. The protocol:
(§1) The susceptibility of Compounds (2) and (3) to potential drug-drug interactions was tested by assaying their abilities to inhibit various cytochrome P450 isoforms. Prior art Compound B (see Example 3 above) was also tested as a comparative example. Test compounds, prepared and serially diluted in DMSO, were incubated at six concentrations (1% DMSO final) with pooled human liver microsomes in the presence of probe substrate for each isoform, and their effects on the metabolism of probe substrates determined. Incubations (in 96-well plates) were carried out at 37° C. in 0.1 M Tris buffer, pH 7.4, with reactions initiated by the addition of cofactor, NADPH (1 mM final concentration). At the specified times, reactions were terminated with acetonitrile containing an analytical internal standard, samples were centrifuged and the supernatant fractions were analysed for probe substrate metabolites by mass spectrometry (LC-MS/MS). The instrument responses were normalised to internal standard and compared to the appropriate solvent controls to determine the amount of metabolite formed from the probe substrates relative to these “uninhibited” controls. […] [table]

Another series concerns the target T2, CYP2B6 (Homo sapiens, UniProt P20813).
T2 construct: from tissue; host or cells: pooled human liver microsomes
T2 sequence (P20813 1-491): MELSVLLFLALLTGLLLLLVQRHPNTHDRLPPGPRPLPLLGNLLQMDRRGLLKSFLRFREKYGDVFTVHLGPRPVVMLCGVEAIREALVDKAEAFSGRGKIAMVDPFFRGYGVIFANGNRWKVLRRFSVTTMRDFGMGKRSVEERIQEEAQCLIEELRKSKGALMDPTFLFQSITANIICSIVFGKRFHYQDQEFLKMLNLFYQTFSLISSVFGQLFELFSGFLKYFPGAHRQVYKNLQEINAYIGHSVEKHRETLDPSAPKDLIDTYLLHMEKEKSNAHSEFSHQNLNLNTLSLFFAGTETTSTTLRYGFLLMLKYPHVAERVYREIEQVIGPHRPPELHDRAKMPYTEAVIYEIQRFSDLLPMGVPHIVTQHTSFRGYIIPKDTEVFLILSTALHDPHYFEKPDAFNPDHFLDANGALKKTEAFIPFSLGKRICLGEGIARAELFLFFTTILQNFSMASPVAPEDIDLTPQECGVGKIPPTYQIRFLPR
Put plainly: Cytochrome P450 inhibition assay, CYP2B6. Type of series: in vitro ADME. As to conditions: pooled human liver microsomes, probe Bupropion. On the procedure: as §1
(In general: Microsomes from liver hold many membrane-bound enzymes, among them those of drug oxidation.)

In the next series the target is T3, CYP2C9 (Homo sapiens, UniProt P11712).
T3 construct: from tissue; host or cells: pooled human liver microsomes
T3 sequence (P11712 whole entry): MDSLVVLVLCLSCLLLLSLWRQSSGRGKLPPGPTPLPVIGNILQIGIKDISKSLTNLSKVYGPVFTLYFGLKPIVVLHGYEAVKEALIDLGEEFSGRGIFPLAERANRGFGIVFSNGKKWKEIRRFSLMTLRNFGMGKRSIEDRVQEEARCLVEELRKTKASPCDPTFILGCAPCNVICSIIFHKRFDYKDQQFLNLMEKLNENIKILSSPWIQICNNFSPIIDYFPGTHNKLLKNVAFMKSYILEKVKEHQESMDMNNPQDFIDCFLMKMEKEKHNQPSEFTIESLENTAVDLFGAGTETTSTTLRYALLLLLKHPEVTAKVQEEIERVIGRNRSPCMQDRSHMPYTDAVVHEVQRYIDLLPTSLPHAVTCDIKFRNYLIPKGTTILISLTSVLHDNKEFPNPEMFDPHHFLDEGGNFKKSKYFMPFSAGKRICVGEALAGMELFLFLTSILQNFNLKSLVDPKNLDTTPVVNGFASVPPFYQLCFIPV
In words: Cytochrome P450 inhibition assay, CYP2C9. Type of series: in vitro ADME. To be noted: pooled human liver microsomes, probe Diclofenac. On the procedure: as §1

The target of the next series is T4, CYP2D6 (Homo sapiens, UniProt P10635).
T4 construct: from tissue; host or cells: pooled human liver microsomes
T4 sequence (P10635 whole entry): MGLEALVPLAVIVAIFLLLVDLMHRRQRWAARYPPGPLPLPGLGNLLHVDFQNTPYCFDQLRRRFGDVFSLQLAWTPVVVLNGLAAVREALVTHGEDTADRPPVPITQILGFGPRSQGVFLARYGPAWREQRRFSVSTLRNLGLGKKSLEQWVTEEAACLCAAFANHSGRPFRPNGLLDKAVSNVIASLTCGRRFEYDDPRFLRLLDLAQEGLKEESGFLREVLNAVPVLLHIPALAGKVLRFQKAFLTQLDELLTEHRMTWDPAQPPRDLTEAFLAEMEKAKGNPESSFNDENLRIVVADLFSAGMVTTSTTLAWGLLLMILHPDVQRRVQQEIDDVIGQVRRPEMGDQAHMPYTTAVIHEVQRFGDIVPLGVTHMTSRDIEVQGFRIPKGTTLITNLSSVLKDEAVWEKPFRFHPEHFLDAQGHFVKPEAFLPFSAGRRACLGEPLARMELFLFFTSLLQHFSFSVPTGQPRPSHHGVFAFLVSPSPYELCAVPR
Put plainly: Cytochrome P450 inhibition assay, CYP2D6. To be noted: pooled human liver microsomes, probe Dextromethorphan. Type of series: in vitro ADME. The protocol: as §1

A further series concerns the target T5, hERG potassium channel (Homo sapiens, UniProt Q12809).
T5 construct: expressed in transfected cells; host or cells: hERG-HEK stably transfected cell line
In words: hERG channel inhibition assay (hERG-HEK cells, Sophion Qube). In kind it is cell-based. As to conditions: for IC50: hERG-HEK cells, tail current, room temperature; for inhibition at 30 uM: human, hERG-HEK stably transfected cell line, Max Conc. 30 uM. On the procedure:
The potential for compounds to inhibit the hERG potassium channel was determined using a hERG-HEK stably transfected cell line on the Sophion Qube automated electrophysiology platform. The assay was performed at room temperature and recordings of the hERG tail current from individual cells was made using single-hole QChips.
The potency (IC50) of test compounds to inhibit the hERG channel was determined from a concentration-response curve generated from 8 test compound concentrations with up to 4 replicates per concentration.
The compound concentration was added to the test well twice to ensure complete exchange of the external buffer with the test compound. In total, compound was applied to the well for >7 minutes.
Background: Block of hERG is tested as a sign of cardiac risk.

A short description of series [1]: Hepatocyte stability assay, dog. Type of series: in vitro ADME. As to conditions: male, Beagle, pooled hepatocytes, 37° C. On the procedure:
(§2) Test and control compounds were incubated with hepatocytes at 37° C. Aliquots were removed at 6 timepoints over a one hour period. Samples were centrifuged and the supernatant fractions analysed for parent compound by mass spectrometry (LC-MS/MS).
(§3) The amount of compound remaining (expressed as %) was determined from the MS response in each sample relative to that in the T=0 samples, and used to determine the half-life and intrinsic clearance of the compound.

A short description of series [2]: Hepatocyte stability assay, human. As to conditions: both sexes, pooled hepatocytes, 37° C. In kind it is in vitro ADME, human (mixed gender). On the procedure:
as §2, §3

The subject of another series is pSTAT3 in HT29 cells. In words: pSTAT3 inhibition in response to IL-22 stimulation in serum starved HT29 cells. In kind it is cell-based. As to conditions: for inhibition at 10 µM: HT-29, HT29 cells, 10 ng/ml human IL-22, 10 μM compound; for IC50: Homo sapiens, HT-29, HT29 cells, 10 ng/ml human IL-22. On the procedure: HT29 cells were serum starved overnight before the four test compounds were diluted to generate a 9-point semi-log dose dilution with a top concentration of 10 μM, plus vehicle control. HT29 cells were incubated with the test compounds for 20 min at 37° C. HT29 cells were incubated for a further 15 min with 10 ng/ml human IL-22 before cells were fixed with 4% PFA for 10 min, and 90% methanol for 30 min before being labelled with a phospho-STAT3Y705 antibody (CST #9145). Cells were rinsed three times using 0.5% BSA/PBS solution before being incubated with Alexa-488 anti-rabbit secondary antibodies.
Mean fluorescence intensity of phospho-STAT3 in single cells was analysed by flow cytometry using an Intellicyt iQue instrument and FlowJo software. The IC50 was determined using a four-parameter analysis following removal of background signal and normalisation to the DMSO control.

The next series concerns the target TYK2 (Homo sapiens, UniProt P29597). Put plainly: TYK2 kinase inhibition assay (33P-ATP filter binding, Reaction Biology).
Another series concerns the target JAK2 (Homo sapiens, UniProt O60674). Put plainly: JAK2 kinase inhibition assay (33P-ATP filter binding, Reaction Biology). As to conditions: for selectivity for TYK2 compared to JAK2: biochemical assays; for Selectivity v TYK2: JAK2: ratio of JAK2 IC50 to TYK2 IC50.

Each structure is given as a SMILES string.

Chain of JAK2 (O60674 809-1132): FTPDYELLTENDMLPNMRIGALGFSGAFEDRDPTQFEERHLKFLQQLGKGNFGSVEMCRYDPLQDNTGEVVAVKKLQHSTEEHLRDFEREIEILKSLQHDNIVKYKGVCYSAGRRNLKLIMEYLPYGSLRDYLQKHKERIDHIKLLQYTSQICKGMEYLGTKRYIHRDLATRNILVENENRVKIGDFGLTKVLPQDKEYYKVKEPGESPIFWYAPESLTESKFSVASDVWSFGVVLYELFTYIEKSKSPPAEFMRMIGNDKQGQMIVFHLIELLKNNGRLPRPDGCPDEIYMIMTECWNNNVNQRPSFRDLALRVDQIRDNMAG
Chain of TYK2 (P29597 833-1187): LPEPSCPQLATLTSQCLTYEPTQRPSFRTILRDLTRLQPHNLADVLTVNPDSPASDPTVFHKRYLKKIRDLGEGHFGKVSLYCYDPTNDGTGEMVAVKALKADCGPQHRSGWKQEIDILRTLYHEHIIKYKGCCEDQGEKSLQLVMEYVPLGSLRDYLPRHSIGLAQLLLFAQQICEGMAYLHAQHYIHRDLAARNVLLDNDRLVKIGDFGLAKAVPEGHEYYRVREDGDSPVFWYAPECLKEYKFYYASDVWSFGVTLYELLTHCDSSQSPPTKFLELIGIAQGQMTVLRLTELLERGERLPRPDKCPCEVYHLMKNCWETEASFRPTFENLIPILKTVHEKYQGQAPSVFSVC
T5 sequence (Q12809 whole entry): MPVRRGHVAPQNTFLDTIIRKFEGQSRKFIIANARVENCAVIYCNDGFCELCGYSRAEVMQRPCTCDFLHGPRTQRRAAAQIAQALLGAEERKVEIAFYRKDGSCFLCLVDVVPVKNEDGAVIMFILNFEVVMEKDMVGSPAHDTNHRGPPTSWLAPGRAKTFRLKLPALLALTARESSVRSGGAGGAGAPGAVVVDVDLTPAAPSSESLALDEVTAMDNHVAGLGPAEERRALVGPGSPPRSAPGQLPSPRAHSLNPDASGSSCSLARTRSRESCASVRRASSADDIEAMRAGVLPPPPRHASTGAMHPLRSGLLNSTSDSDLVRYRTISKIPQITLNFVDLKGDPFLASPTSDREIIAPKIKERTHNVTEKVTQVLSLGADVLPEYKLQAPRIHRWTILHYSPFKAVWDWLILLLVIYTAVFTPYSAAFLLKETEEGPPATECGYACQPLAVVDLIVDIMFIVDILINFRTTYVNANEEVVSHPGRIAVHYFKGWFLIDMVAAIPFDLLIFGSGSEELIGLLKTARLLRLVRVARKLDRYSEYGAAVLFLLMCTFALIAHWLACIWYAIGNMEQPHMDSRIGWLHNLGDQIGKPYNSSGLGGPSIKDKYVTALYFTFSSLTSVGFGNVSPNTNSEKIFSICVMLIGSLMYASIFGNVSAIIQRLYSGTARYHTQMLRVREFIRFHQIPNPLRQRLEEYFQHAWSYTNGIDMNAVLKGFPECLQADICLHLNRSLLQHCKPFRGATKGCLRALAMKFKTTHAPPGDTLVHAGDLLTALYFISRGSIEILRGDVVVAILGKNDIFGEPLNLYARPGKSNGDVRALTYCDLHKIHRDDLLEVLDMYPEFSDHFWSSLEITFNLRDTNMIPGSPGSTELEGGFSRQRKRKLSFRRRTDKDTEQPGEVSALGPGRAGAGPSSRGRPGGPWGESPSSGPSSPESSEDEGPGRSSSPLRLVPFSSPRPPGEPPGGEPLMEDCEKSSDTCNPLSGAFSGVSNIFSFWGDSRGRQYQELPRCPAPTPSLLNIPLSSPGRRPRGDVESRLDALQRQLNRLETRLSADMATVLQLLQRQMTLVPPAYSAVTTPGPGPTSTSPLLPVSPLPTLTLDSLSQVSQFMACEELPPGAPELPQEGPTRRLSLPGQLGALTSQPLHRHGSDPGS

Usually IC50 stands for the concentration that gives 50% inhibition. By inhibition is commonly meant the drop in the measured response relative to a control, in per cent. Broadly, the hepatocyte CLint is a measure of how fast metabolising enzymes remove a compound, apart from limits set by blood flow. Consider `NC(=O)c1nc(-c2c(Cl)cccc2Cl)oc1Nc1ccc(C(=O)N2CCS(=O)(=O)CC2)c(F)c1` [Compound (3)], for which the IC50 is more than 30 µM at CYP1A2; more than 30 µM on CYP2B6; more than 30 µM against CYP2C9; more than 30 µM on CYP2D6; more than 30 µM against hERG potassium channel; 0.231 µM with pSTAT3 in HT29 cells. In addition, the IC50 on TYK2 amounted to 0.0047 µM; at JAK2 it was 0.153 µM. Besides, the inhibition at 30 uM on hERG potassium channel came to 31.5%. Moreover, the hepatocyte CLint in series [1] was determined as 8.8 µL/min/1e6 cells; in [2] it was 4.2 µL/min/1e6 cells. Moreover, the half-life in series [1] (read-out: Dog T1/2) turned out to be 3.08 h; in series [2] (read-out: Human T1/2) it was 5.58 h. This molecule also returned an inhibition at 10 µM with pSTAT3 in HT29 cells of 95.9%. Besides, on TYK2 (ratio of IC50 to TYK2 IC50), the “Selectivity v TYK2: TYK2” value is recorded as 1. For the same molecule, the “selectivity for TYK2 compared to JAK2” value on JAK2 is given as “approximately 32 fold”. Further, the “Selectivity v TYK2: JAK2” value at JAK2 was 32.5.

In the case of `NC(=O)c1nc(-c2c(Cl)cccc2Cl)oc1Nc1ccc(C(=O)N2CCOCC2)cc1` [Comparative Compound B, 2-(2,6-dichloro-phenyl)-5-[4-(morpholine-4-carbonyl)-phenylamino]-oxazole-4-carboxylic acid amide, reference compound], the IC50 at CYP1A2 is more than 30 µM; on CYP2B6, more than 30 µM; on CYP2C9, 4.4 µM; against CYP2D6 it was more than 30 µM; on hERG potassium channel it was approximately 30 µM; with pSTAT3 in HT29 cells, less than 0.1 µM. In addition, the half-inhibitory concentration (IC50) at TYK2 was determined as 0.0051 µM. Also, the inhibition at 30 uM against hERG potassium channel stood at 50.5%. In addition, the figures for the hepatocyte CLint in series [1] and in series [2] were 29.8 µL/min/1e6 cells and 9 µL/min/1e6 cells, respectively. This molecule registered an inhibition at 10 µM in the series with pSTAT3 in HT29 cells of 97.9%.

Consider `NC(=O)c1nc(-c2c(Cl)cccc2Cl)oc1Nc1ccc(C(=O)N2CCS(=O)(=O)CC2)cc1` [Compound (2)], for which the IC50 is more than 30 µM on CYP1A2; more than 30 µM on CYP2B6; 26 µM at CYP2C9; more than 30 µM on CYP2D6; more than 30 µM against hERG potassium channel; 0.0019 µM at TYK2. At JAK2, the IC50 came out at 0.05 µM. In addition, the inhibition at 30 uM against hERG potassium channel was determined as 38.6%. This molecule also yielded an inhibition at 10 µM in the series on pSTAT3 in HT29 cells of 95.9%. Moreover, the “selectivity for TYK2 compared to JAK2” value on JAK2 is “approximately 25 fold”. For the same molecule, the “Selectivity v TYK2: JAK2” value at JAK2 is 26.3.

Values taken from US12187716B2, “TYK2 kinase inhibitors” (SAREUM LIMITED, priority 2018, dated 2025).
